{"source": "patent US12390473B2", "about": "“Methods of treating tyrosine kinase inhibitor-induced diarrhea” (THE REGENTS OF THE UNIVERSITY OF CALIFORNIA, priority 2019, dated 2025)", "key": {"[1]": {"system": "basolateral membrane K+ channel(s)", "assay": "Basolateral K+ conductance: short-circuit current in apically permeabilized T84 cells with K+ gradient", "type": "cell-based, human", "settings": "apical membrane permeabilized", "description": "(§1) T84 cells are mounted in Ussing chambers and bathed in symmetrical HCO3-buffered solution containing (in mM): 120 NaCl, 5 KCl, 1 MgCl2, 1 CaCl2, 10 D-glucose, 5 HEPES and 25 NaHCO3 (pH 7.4). The solutions are aerated with 95% O2/5% CO2 and maintained at 37° C. For measurement of basolateral K^+ conductance, a mucosal-to-serosal K^+ gradient is established using solutions containing K^+ as the major charge-carrying ion. The apical solution contained (in mM): 142.5 K-gluconate, 1.25 CaCl2, 0.40 MgSO4, 0.43 KH2PO4, 0.35 Na2HPO4, 10 HEPES, 5.6 D-glucose, pH 7.4. […] Short-circuit current is measured using an EVC4000 multichannel voltage clamp (World Precision Instruments, Sarasota, FL).\nTo measure basolateral membrane K^+ conductance directly, short-circuit current is measured in T84 cells following permeabilization of the apical membrane with amphotericin B in Cl^− and Na^+ free solutions and an apical-to-basolateral K^+ gradient (FIG. 7A)."}, "[2]": {"system": "T84 human colonic epithelial cells", "assay": "Short-circuit current in T84 cell monolayers, identical apical and basolateral solutions", "type": "cell-based", "settings": "for effect on carbachol and forskolin induced current responses, without and with afatinib pretreatment: 30 μM clotrimazole, 10 μM senicapoc, 30 min prior to 100 μM carbachol then 10 μM forskolin; for effect of higher concentrations on the small residual current: data not shown; for effect on residual afatinib-induced carbachol response in BAPTA-treated cells: 10 μM inhibitor; for effect on residual afatinib-induced carbachol response in BAPTA-treated cells / short-circuit current, TKI alone: 20 μM afatinib; for short-circuit current, TKI alone: 40 μM lapatinib, 20 μM gefitinib, before carbachol", "experimental": "T84 cells (ATCC CCL-248) are cultured in a 1:1 mixture of DMEM/Ham's F-12 medium supplemented with 10% FBS, 100 U/mL penicillin and 100 μg/mL streptomycin. Cells are grown on Snapwell inserts (Costar Corning, Horseheads, NY) at 37° C. in 5% CO2/95% air and used 7-10 days after plating.\nT84 cells are mounted in Ussing chambers and bathed in symmetrical HCO3-buffered solution containing (in mM): 120 NaCl, 5 KCl, 1 MgCl2, 1 CaCl2, 10 D-glucose, 5 HEPES and 25 NaHCO3 (pH 7.4). The solutions are aerated with 95% O2/5% CO2 and maintained at 37° C. For measurement of basolateral K^+ conductance, a mucosal-to-serosal K^+ gradient is established using solutions containing K^+ as the major charge-carrying ion. The apical solution contained (in mM): 142.5 K-gluconate, 1.25 CaCl2, 0.40 MgSO4, 0.43 KH2PO4, 0.35 Na2HPO4, 10 HEPES, 5.6 D-glucose, pH 7.4. […] For measurement of apical Cl^− conductance, a basolateral to apical Cl^− gradient is applied. The basolateral solution contained (in mM): 120 NaCl, 1 MgCl2, 1 CaCl2, 10 D-glucose, 5 HEPES and 25 NaHCO3 (pH 7.4). In the apical solution 120 mM NaCl is replaced by 5 mM NaCl and 115 mM Na-gluconate, and the basolateral membrane is permeabilized with 250 μg/ml amphotericin B (Pongkorpsakol P, Pathomthongtaweechai N, Srimanote P, Soodvilai S, Chatsudthipong V, and Muanprasat C. Inhibition of cAMP-activated intestinal chloride secretion by diclofenac: cellular mechanism and potential application in cholera. PLoS Negl Trop Dis. 2014; 8(9):e3119). Short-circuit current is measured using an EVC4000 multichannel voltage clamp (World Precision Instruments, Sarasota, FL). For intestinal short-circuit current measurement, CD1 mice are anesthetized with isoflurane. The ileum is removed, washed with ice-cold Krebs buffer, opened along the mesenteric border, and full-thickness layer is mounted in a micro-Ussing chamber (area 0.7 cm2, World Precision Instruments, Sarasota, FL). Hemichambers are filled with oxygenated Krebs-bicarbonate solution.\nThe effect of ErbB TKIs lapatinib, gefitinib, and afatinib on Cl^− secretory responses in T84 human colonic epithelial cells is tested. Short-circuit current is measured in T84 cell monolayers with identical solutions bathing the apical and basolateral surfaces."}, "Sprague-Dawley rats": {"system": "Sprague-Dawley rats", "assay": "Rat model of afatinib diarrhea (stool water content, intestinal histology)", "type": "in vivo", "settings": "for reduction of the increased stool water content with afatinib: senicapoc 30 mg/kg oral twice daily; for inhibition of the increase in stool water content: days 3 and 4", "experimental": "Female Sprague-Dawley rats (age 8-10 weeks) received oral afatinib (60 mg/kg oral) daily for 6 days. […] Rats are placed individually in metabolic cages and given access to water and food. Stool samples are collected for 5 hours. To measure stool water content, the stool samples are dried at 70° C. for 24 hours and water content is calculated as (wet weight−dry weight)/wet weight. Following initial dose-finding studies in mice and rats with several TKIs, using stool water content (from wet and dry weight measurement) as endpoint, a robust, short-term experimental animal model of afatinib diarrhea is established involving daily oral administration of 60 mg/kg afatinib in rats."}, "[3]": {"target": "epithelial Ca2+-activated K+ channels (Homo sapiens, UniProt O15554)", "sequence (O15554 whole entry)": "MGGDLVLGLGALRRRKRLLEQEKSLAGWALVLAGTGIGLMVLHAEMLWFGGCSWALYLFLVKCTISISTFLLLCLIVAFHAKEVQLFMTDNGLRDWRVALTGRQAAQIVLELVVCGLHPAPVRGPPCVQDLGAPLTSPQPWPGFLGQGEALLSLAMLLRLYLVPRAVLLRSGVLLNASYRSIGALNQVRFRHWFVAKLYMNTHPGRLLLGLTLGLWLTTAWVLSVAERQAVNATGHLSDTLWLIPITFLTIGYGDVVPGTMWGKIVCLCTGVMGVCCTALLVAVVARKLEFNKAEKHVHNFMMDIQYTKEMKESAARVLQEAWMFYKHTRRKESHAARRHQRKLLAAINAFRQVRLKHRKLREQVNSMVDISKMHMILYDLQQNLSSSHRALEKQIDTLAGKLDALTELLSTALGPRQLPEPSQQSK", "settings": "reported; cited from earlier work"}, "[4]": {"target": "T1, apical membrane CFTR Cl- channels (Homo sapiens, UniProt P13569)", "T1 construct": "endogenous in cells; host or cells: T84 (ATCC CCL-248)", "T1 sequence (P13569 whole entry)": "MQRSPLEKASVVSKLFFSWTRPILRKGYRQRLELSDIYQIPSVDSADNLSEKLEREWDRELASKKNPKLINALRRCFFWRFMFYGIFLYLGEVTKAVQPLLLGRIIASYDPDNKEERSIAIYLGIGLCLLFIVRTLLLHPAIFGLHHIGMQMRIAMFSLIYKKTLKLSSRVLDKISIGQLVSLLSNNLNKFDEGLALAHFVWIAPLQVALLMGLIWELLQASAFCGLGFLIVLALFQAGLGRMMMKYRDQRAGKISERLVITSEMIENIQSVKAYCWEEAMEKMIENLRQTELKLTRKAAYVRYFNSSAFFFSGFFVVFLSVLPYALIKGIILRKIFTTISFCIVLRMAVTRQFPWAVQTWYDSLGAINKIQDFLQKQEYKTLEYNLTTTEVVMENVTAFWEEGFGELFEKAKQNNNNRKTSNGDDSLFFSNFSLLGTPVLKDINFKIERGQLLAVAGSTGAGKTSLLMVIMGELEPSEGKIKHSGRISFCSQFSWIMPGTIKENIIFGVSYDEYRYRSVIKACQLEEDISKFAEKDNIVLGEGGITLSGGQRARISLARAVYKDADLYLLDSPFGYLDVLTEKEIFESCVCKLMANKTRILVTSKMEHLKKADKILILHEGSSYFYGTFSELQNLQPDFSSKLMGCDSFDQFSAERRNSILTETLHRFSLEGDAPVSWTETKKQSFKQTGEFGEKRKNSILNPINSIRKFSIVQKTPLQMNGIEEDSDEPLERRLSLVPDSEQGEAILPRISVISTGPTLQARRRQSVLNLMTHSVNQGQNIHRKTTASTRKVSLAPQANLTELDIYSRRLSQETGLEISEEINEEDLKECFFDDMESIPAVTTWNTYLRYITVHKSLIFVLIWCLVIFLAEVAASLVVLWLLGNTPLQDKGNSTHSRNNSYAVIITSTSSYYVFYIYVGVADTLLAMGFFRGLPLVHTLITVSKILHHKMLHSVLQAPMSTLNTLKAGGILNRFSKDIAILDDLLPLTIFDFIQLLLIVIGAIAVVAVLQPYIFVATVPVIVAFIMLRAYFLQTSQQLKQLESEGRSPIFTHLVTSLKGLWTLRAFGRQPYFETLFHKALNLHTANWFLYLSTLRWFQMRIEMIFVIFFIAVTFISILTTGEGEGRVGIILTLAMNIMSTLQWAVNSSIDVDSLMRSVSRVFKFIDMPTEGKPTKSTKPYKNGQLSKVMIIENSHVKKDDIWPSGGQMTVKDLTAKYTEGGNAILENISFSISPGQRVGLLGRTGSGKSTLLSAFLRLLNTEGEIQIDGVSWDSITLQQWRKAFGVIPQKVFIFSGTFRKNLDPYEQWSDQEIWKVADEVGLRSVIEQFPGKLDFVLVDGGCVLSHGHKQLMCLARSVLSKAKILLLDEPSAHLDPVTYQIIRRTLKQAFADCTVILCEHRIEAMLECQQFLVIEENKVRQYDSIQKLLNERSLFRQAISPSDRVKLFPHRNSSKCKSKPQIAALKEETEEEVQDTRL", "assay": "Apical Cl- conductance: short-circuit current in basolaterally permeabilized T84 cells with Cl- gradient", "type": "cell-based", "settings": "basolateral membrane permeabilized, 10 μM BPO-27"}, "[5]": {"system": "cAMP-activated K+ channels", "assay": "Inhibition of forskolin-induced short-circuit current in T84 cells (FIG. 11B)", "type": "cell-based, human", "settings": "10 μM forskolin", "description": "as §1"}, "[6]": {"settings": "afatinib-treated rats, BPO-27 10 mg/kg ip twice daily, clotrimazole 100 mg/kg oral in two divided doses"}, "[7]": {"settings": "30 μM BAPTA-AM, 100 μM carbachol"}}, "data": [{"compound": "Clc1ccccc1C(c1ccccc1)(c1ccccc1)n1ccnc1", "note": "[clotrimazole]", "values": [{"measurement": "effect on afatinib-amplified carbachol response (basolateral K+ conductance)", "setting": "[1]; afatinib pretreatment, carbachol", "value": "largely blocked"}, {"measurement": "effect on carbachol and forskolin induced current responses, without and with afatinib pretreatment", "setting": "[2]", "value": "largely prevents"}, {"measurement": "effect of higher concentrations on the small residual current", "setting": "[2]", "value": "does not inhibit the residual current"}, {"measurement": "reduction of the increased stool water content with afatinib", "setting": "Sprague-Dawley rats; [6]", "value": "significantly reduced"}, {"measurement": "inhibition of the increase in stool water content", "setting": "Sprague-Dawley rats; afatinib-treated rats, clotrimazole 100 mg/kg oral in two divided doses", "value": "~75", "unit": "%"}, {"measurement": "inhibition of epithelial Ca2+-activated K+ channels in patch-clamp studies", "setting": "[3]", "value": "fully inhibit"}]}, {"compound": "Cn1c(=O)c2c(-c3ccccc3)n3c(c2n(C)c1=O)[C@H](c1ccc(Br)o1)Oc1ccc(C(=O)O)cc1-3", "note": "[BPO-27]", "values": [{"measurement": "effect on afatinib-amplified carbachol response (apical Cl- conductance)", "setting": "[4]", "value": "blocked"}, {"measurement": "effect on afatinib augmentation of carbachol-induced current", "setting": "[2]; 10 μM BPO-27, 20 μM afatinib, 100 μM carbachol", "value": "blocks the afatinib augmentation"}, {"measurement": "effect on carbachol-induced current without afatinib", "setting": "[2]; 10 μM BPO-27, 100 μM carbachol", "value": "little effect"}, {"measurement": "effect on residual afatinib-induced carbachol response in BAPTA-treated cells", "setting": "[2]; [7]", "value": "blocked"}, {"measurement": "inhibition of the increase in stool water content", "setting": "Sprague-Dawley rats; afatinib-treated rats, BPO-27 10 mg/kg ip twice daily from 1 day after first afatinib dose", "value": "~50", "unit": "%"}, {"measurement": "reduction of the increased stool water content with afatinib", "setting": "Sprague-Dawley rats; [6]", "value": "significant reduction"}, {"measurement": "inhibitor effect on stool water content by day 5", "setting": "Sprague-Dawley rats; afatinib-treated rats, BPO-27 10 mg/kg ip twice daily, day 5", "value": "reduced inhibitor effect"}]}, {"compound": "CN(C)C/C=C/C(=O)Nc1cc2c(Nc3ccc(F)c(Cl)c3)ncnc2cc1O[C@H]1CCOC1", "note": "[afatinib]", "values": [{"measurement": "increase in carbachol response (basolateral K+ conductance) after pretreatment", "setting": "[1]; 20 μM afatinib, 100 μM carbachol", "value": "~2", "unit": "fold"}, {"measurement": "EC50", "setting": "[2]; Homo sapiens, added 25 min prior to carbachol, read-out: EC50 of amplification of carbachol-induced short-circuit current", "value": "~5", "unit": "µM"}, {"measurement": "intestinal histology", "setting": "Sprague-Dawley rats; rats, 60 mg/kg afatinib oral daily", "value": "relatively minor pathology up to day 4, but greater epithelial disruption after that"}, {"measurement": "stool water content", "setting": "Sprague-Dawley rats; rats, 60 mg/kg afatinib oral daily, days 4-5, baseline ~60%", "value": "> 80", "unit": "%"}, {"measurement": "intestinal histology (H&E) by day 6", "setting": "Sprague-Dawley rats; rats, 60 mg/kg afatinib oral, day 6", "value": "scattered epithelial disruption is seen in jejunum (black arrowheads) and villus atrophy in ileum"}, {"measurement": "intestinal histology (H&E) up to day 4", "setting": "Sprague-Dawley rats; rats, 60 mg/kg afatinib oral, up to day 4", "value": "minor injury up to day 4 with villus blunting in ileum"}]}, {"compound": "NC(=O)C(c1ccccc1)(c1ccc(F)cc1)c1ccc(F)cc1", "note": "[senicapoc]", "values": [{"measurement": "IC50 for inhibition of cAMP-dependent basolateral K+ conductance", "setting": "[5]", "value": "low micromolar"}, {"measurement": "effect on carbachol and forskolin induced current responses, without and with afatinib pretreatment", "setting": "[2]", "value": "largely prevents"}, {"measurement": "effect of higher concentrations on the small residual current", "setting": "[2]", "value": "does not inhibit the residual current"}, {"measurement": "reduction of the increased stool water content with afatinib", "setting": "Sprague-Dawley rats; [6]", "value": "Significant, though lesser reduction"}]}, {"compound": "COc1cc2ncnc(Nc3ccc(F)c(Cl)c3)c2cc1OCCCN1CCOCC1", "note": "[gefitinib]", "values": [{"measurement": "short-circuit current, TKI alone", "setting": "[2]", "value": "do not increase short-circuit current"}]}, {"compound": "O=C(O)c1ccc(/C=C2\\SC(=S)N(c3cccc(C(F)(F)F)c3)C2=O)cc1", "note": "[CFTRinh-172]", "values": [{"measurement": "effect on residual afatinib-induced carbachol response in BAPTA-treated cells", "setting": "[2]; [7]", "value": "blocked"}]}, {"compound": "CS(=O)(=O)CCNCc1ccc(-c2ccc3ncnc(Nc4ccc(OCc5cccc(F)c5)c(Cl)c4)c3c2)o1", "note": "[lapatinib]", "values": [{"measurement": "short-circuit current, TKI alone", "setting": "[2]", "value": "do not increase short-circuit current"}]}, {"compound": "CCn1c(=O)[nH]c2ccccc21", "note": "[EBIO]", "values": [{"measurement": "effect of pretreatment on carbachol and forskolin current responses", "setting": "[2]; EBIO 500 μM and/or afatinib 20 μM, 25 min prior to 100 μM carbachol then 10 μM forskolin", "value": "amplifies the carbachol and forskolin current responses"}]}, {"compound": "EGF: Epidermal growth factor (NSDSECPLSHDGYCLHDGVCMYIEALDKYACNCVVGYIGERCQYRDLKWWELR; UniProt P01133 971-1023, looked up)", "values": [{"measurement": "effect on Cl- secretion in response to carbachol", "setting": "[2]; 100 ng/ml EGF 25 min prior to 100 μM carbachol", "value": "greatly reduces"}]}, {"compound": "CC(=O)OCOC(=O)CN(CC(=O)OCOC(C)=O)c1ccccc1OCCOc1ccccc1N(CC(=O)OCOC(C)=O)CC(=O)OCOC(C)=O", "note": "[BAPTA-AM]", "values": [{"measurement": "effect on carbachol response", "setting": "[2]; [7]", "value": "largely prevents the carbachol response"}]}]}
